Read-outs that look alike come from different tables or passages of the source.
Tests used:
[1] = test system: Dispase-induced rabbit PVR models; experiment: Retinal detachment inhibition tests of betamethasone; format: in vivo; details: 10 mg/eye subconjunctival immediately after dispase
Protocol: A 0.5% tropicamide-0.5% phenylephrine hydrochloride ophthalmic solution was instilled into eyes of rabbits to cause mydriasis, and a 1 ml/kg mixed solution (7:1) of a 5% ketamine hydrochloride injection and a 2% xylazine hydrochloride injection was administered intramuscularly to the rabbits to anesthetize them systemically. 0.4% oxybuprocaine was instilled into the eyes to anesthetize anterior segments of the eyes, and then 100 μl of a dispase solution prepared at a concentration of 0.05 U/100 μl with physiological saline was injected into vitreous bodies. Six weeks and ten weeks after injecting the dispase solution, PVR induced by dispase was confirmed by observing ocular fundus.
Betamethasone was dissolved in a phosphate buffer so that its concentration was 0.1 g/ml, and the solution was administered subconjunctivally in an amount of 100 μl immediately after injecting dispase. The phosphate buffer was administered similarly as a vehicle administration group.
The ocular fundus was observed 56 days after inducing by dispase, and PVR was judged by scores. Criteria of judgment are shown below. Scores of three or more were defined as exhibition of PVR, and pathogenesis rates of PVR (pathogenesis rates of retinal detachment) in respective groups were calculated according to the equation 2.
1: A vitreous membrane is observed.
2: Traction, vascular abnormality or engorgement of the retina is observed.
3: Topical retinal detachment is observed.
4: Wide retinal detachment is observed.
5: Total retinal detachment is observed.
Pathogenesis rate of PVR (%)=PVR exhibition eye number/test eye number×100

[2] = test system: Laser-induced rat choroidal neovascularization models; details: for Neovascularization exhibition rate (%, average of eight eyes): fluorescein fundus angiography on seventh day; for Choroidal neovascularization inhibition rate (%): versus vehicle administration group
Protocol: (§1) A one ml/kg mixed solution (7:1) of a 5% ketamine hydrochloride injection and a 2% xylazine hydrochloride injection was administered intramuscularly to rats to anesthetize them systemically. A 0.5% tropicamide-0.5% phenylephrine hydrochloride ophthalmic solution was instilled into the eyes to cause mydriasis, and then photocoagulation was performed with a krypton laser photocoagulation apparatus. The photocoagulation was carried out in a posterior section of ocular fundus at eight spots per eye sparsely avoiding thick retinal vessels and focusing on the retinal depth (coagulation conditions: spot size: 100 μm, output: 100 mW, coagulation time: 0.1 sec). After the photocoagulation, the ocular fundus was photographed to confirm laser irradiation sites.
Triamcinolone was suspended in the phosphate buffers as a comparative group so that its concentrations were 0.2 mg/ml and 2 mg/ml, and each suspension was administered similarly. The phosphate buffer was administered similarly as a vehicle administration group.
(§2) On seventh day after the photocoagulation, 0.1 ml of 10% fluorescein was injected from carotid vein, and fluorescein fundus angiography was performed. In the fluorescein fundus angiography, a spot where fluorescence diapedesis was not observed was judged as negative, and a spot where fluorescence diapedesis was observed was judged as positive. Each neovascularization exhibition rate was obtained by calculating the ratio of a positive spot number to eight spots irradiated with the laser, and each choroidal neovascularization inhibition rate was calculated according to the following equation.
(§3) Choroidal neovascularization inhibition rate (%)=(Ao−Ax)/Ao×100
(§4) Ao: Neovascularization exhibition rate of vehicle administration group
(§5) Ax: Neovascularization exhibition rate of drug administration group

[3] = test system: Thrombin-induced rat retinal vessel hyperpermeability models; experiment: Retinal vessel permeability inhibition tests of betamethasone phosphate; format: in vivo; details: administered with thrombin
Protocol: A one ml/kg mixed solution (7:1) of a 5% ketamine hydrochloride injection and a 2% xylazine hydrochloride injection was intramuscularly administered to rats to anesthetize them systemically. Then, a 0.5% tropicamide-0.5% phenylephrine hydrochloride ophthalmic solution was instilled into left eyes to cause mydriasis. Thrombin (500. U/ml, 2.5 μl) was injected into vitreous bodies (left eye) of rats of a drug administration group and a control group with a 33 G needle without injuring crystalline lenses and retinas while observing them with a microscope for operation. A vehicle (Dulbecco's modified phosphate buffer physiological saline) was administered to rats of a normal group instead of thrombin. […]
Forty-eight hours after administering thrombin intravitreously, the 0.5% tropicamide-0.5% phenylephrine hydrochloride ophthalmic solution was instilled into the eyes to cause mydriasis. […] About 40 minutes after administering fluorescein, blood was collected from hearts, and then an intraocular fluorescent pigment concentration was immediately measured with a fluorotron master. The collected blood was centrifuged at 15,000 rpm×5 minutes, then supernatant (plasma) was diluted 51 times with the phosphate buffer physiological saline, and a fluorescent pigment concentration in the plasma was measured with the fluorotron master. […]

[4] = test system: Laser-induced rat choroidal neovascularization models; experiment: Choroidal neovascularization inhibition tests of hydrocortisone; format: in vivo; details: for Neovascularization exhibition rate (%, average of eight eyes): administered once subconjunctivally immediately after laser irradiation; for Choroidal neovascularization inhibition rate (%): once subconjunctivally, versus vehicle administration group
Protocol: as §1, §2, §3, §4, §5
Hydrocortisone was dissolved in phosphate buffers so that its concentrations were 2 mg/ml and 20 mg/ml, and each solution was administered once subconjunctivally in an amount of 50 μl immediately after laser irradiation. The phosphate buffer was administered similarly as a vehicle administration group.
Evaluation was carried out by a method similar to the above-mentioned tests of betamethasone sodium phosphate.

[5] = 10 μg/eye/day subconjunctival for seven days after laser irradiation
[6] = 100 μg/eye/day subconjunctival for seven days after laser irradiation

## C[C@H]1C[C@H]2[C@@H]3CCC4=CC(=O)C=C[C@]4(C)[C@@]3(F)[C@@H](O)C[C@]2(C)[C@@]1(O)C(=O)CO [Betamethasone]
[1]; after 6 weeks
  Pathogenesis rate of PVR: 45.5%
[1]; after 10 weeks
  Pathogenesis rate of PVR: 37.5%
[1]; after 10 weeks, listed as betamethasone
  Pathogenesis rate of PVR: 37.5%

## C[C@H]1C[C@H]2[C@@H]3CCC4=CC(=O)C=C[C@]4(C)[C@@]3(F)[C@@H](O)C[C@]2(C)[C@@]1(O)C(=O)COP(=O)([O-])[O-].[Na+].[Na+] [Betamethasone sodium phosphate, betamethasone sodium phosphate]
[2]; [5]
  Neovascularization exhibition rate (%, average of eight eyes): 34.4%
[2]; [6]
  Neovascularization exhibition rate (%, average of eight eyes): 11.1%
[3]
  Effect on hyperpermeability of retinal vessels due to thrombin (in words): the hyperpermeability of retinal vessels due to thrombin is inhibited

## C[C@]12C=CC(=O)C=C1CC[C@H]1[C@@H]3C[C@@H](O)[C@](O)(C(=O)CO)[C@@]3(C)C[C@H](O)[C@@]12F [Triamcinolone]
[2]; [5]
  Neovascularization exhibition rate (%, average of eight eyes): 46.9%
[2]; 10 μg/eye/day subconjunctival for seven days
  Choroidal neovascularization inhibition rate (%): 13.1%
[2]; [6]
  Neovascularization exhibition rate (%, average of eight eyes): 22.3%
[2]; 100 μg/eye/day subconjunctival for seven days
  Choroidal neovascularization inhibition rate (%): 58.8%

## C[C@]12CCC(=O)C=C1CC[C@@H]1[C@@H]2[C@@H](O)C[C@@]2(C)[C@H]1CC[C@]2(O)C(=O)CO [Hydrocortisone]
[4]; 100 μg/eye/day
  Neovascularization exhibition rate (%, average of eight eyes): 45.3%
  Choroidal neovascularization inhibition rate (%): 32.6%
[4]; 1000 μg/eye/day
  Neovascularization exhibition rate (%, average of eight eyes): 19.6%
  Choroidal neovascularization inhibition rate (%): 70.8%
[4]; both dosages of 100 μg/eye/day and 1,000 μg/eye/day
  Inhibitory effect on choroidal neovascularization (in words): has an inhibitory effect on choroidal neovascularization

From US20040097478A1, “Remedies for retina and choroid diseases containing steroids as the active ingredient” (SANTEN PHARMACEUTICAL O., LTD, priority 2001, published 2004)
